Measured values as given in US12215107B1, “Pyrazino[1′,2′:1,5]pyrazolo[4,3-c] [2,6] naphthyridine compounds as CK2 inhibitors” (KING FAISAL UNIVERSITY, priority 2024, dated 2025).

Columns and labels:
PC3 (prostate) = assay: MTT in vitro cytotoxic activity assay, PC3; format: cell-based; settings: Homo sapiens, Prostate cell, cells exposed for 96 hours, read-out: Cytotoxicity activity IC50 (50% inhibition of cell proliferation)
Experimental: (§1) Compounds 1-16 were screened for their in vitro cytotoxic activity utilizing a 3-(4,5-dimethyl-thiazol-2-yl)-2,5-diphenyltetrazolium bromide (MTT) assay against selected cancer human cell lines consisting of PC3 (prostate), HCT116 (colon), A375 (melanoma), H1299 (lung), MIAPaCa-2 (pancreas), HL60 (leukemia), MCF7 (breast), MDA-MB-231 (breast) (T. Mosmann, J. Immunol. Meth., 1983, 65, 55-63). The cells were cultured at 37° C. in RMPI1640 medium supplemented with 10% fetal bovine serum, 50 IU/mL penicillin, and 50 μg/mL streptomycin in a 5% CO2 incubator. All cells were sub-cultured 3 times/week by trypsinisation. Viable cells were seeded and allowed to adhere for 12 hours before a test drug was added in 96-well plates at an initial density of 1.0×10^5 cells/mL. Tumor cell lines were separately exposed to various concentrations of the tested compounds followed by incubation at a temperature of 37° C. during 96 hours inside a medium of fresh RMPI 1640. Cells were subsequently incubated at 37° C. using MTT at 0.5 mg/mL during 4 hours. After removal of supernatant, formazan crystals were dissolved in isopropanol and the optical density was measured at 570 nm. CX-4945 was used as a positive control.

HCT116 (colon) = assay: MTT in vitro cytotoxic activity assay, HCT116; format: cell-based; settings: Homo sapiens, HCT-116, cells exposed for 96 hours, read-out: Cytotoxicity activity IC50 (50% inhibition of cell proliferation)
Experimental: as §1

HL60 (leukemia) = assay: MTT in vitro cytotoxic activity assay, HL60; format: cell-based; settings: Homo sapiens, HL-60, cells exposed for 96 hours, read-out: Cytotoxicity activity IC50 (50% inhibition of cell proliferation)
Experimental: as §1

MDA-MB-231 (breast) = assay: MTT in vitro cytotoxic activity assay, MDA-MB-231; format: cell-based; settings: Homo sapiens, cells exposed for 96 hours, read-out: Cytotoxicity activity IC50 (50% inhibition of cell proliferation)
Experimental: as §1

A375 (melanoma) = assay: MTT in vitro cytotoxic activity assay, A375; format: cell-based; settings: Homo sapiens, A-375, cells exposed for 96 hours, read-out: Cytotoxicity activity IC50 (50% inhibition of cell proliferation)
Experimental: as §1

[1] = target: T1, recombinant human CK2 (RRββ-holoenzyme) (Homo sapiens, UniProt P68400); assay: CK2 Kinase Assay (33P-ATP, filter plate); format: biochemical; settings: final ATP concentration 15 μM, 10 minutes at 30° C.; read-out: protein kinase CK2 IC50
T1 construct: purchased Millipore
Experimental: CK2 Kinase Assay was conducted using the protocol as described in Pierre F. et al; J. Med. Chem. 2011, 54, 635-654. The tested compounds in aqueous solution were added at a volume of 10 μL to a reaction mixture comprising 10 μL of assay dilution buffer (ADB; 20 mM MOPS, pH 7.2, 25 mM β-glycerol phosphate, 5 mM EGTA, 1 mM sodium orthovanadate, and 1 mM dithiothreitol), 10 μL of substrate peptide (RRRDDDSDDD, dissolved in ADB at a concentration of 1 mM), 10 μL of recombinant human CK2 (RRββ-holoenzyme, 25 ng dissolved in ADB; Millipore). Reactions were initiated by the addition of 10 μL of ATP solution (90% 75 mMMgCl2, 75 μM ATP (final ATP concentration: 15 μM) dissolved in ADB; 10% [γ-33P] ATP (stock 1 mCi/100 μL; 3000 Ci/mmol (Perkin-Elmer) and maintained for 10 minutes at 30° C. The reactions were quenched with 100 μL of 0.75% phosphoric acid and then transferred to and filtered through a phosphor cellulose filter plate (Millipore). After washing each well five times with 0.75% phosphoric acid, the plate was dried under vacuum for 5 min and, following the addition of 15 μL of scintillation fluid to each well, the residual radioactivity was measured using a Wallac […]. The IC50 values were derived from eight concentrations of test inhibitors.

H1299 (lung) = assay: MTT in vitro cytotoxic activity assay, H1299; format: cell-based; settings: Homo sapiens, NCI-H1299, cells exposed for 96 hours, read-out: Cytotoxicity activity IC50 (50% inhibition of cell proliferation)
Experimental: as §1

MIAPaCa-2 (pancreas) = assay: MTT in vitro cytotoxic activity assay, MIAPaCa-2; format: cell-based; settings: Homo sapiens, MIA PaCa-2, cells exposed for 96 hours, read-out: Cytotoxicity activity IC50 (50% inhibition of cell proliferation)
Experimental: as §1

MCF7 (breast) = assay: MTT in vitro cytotoxic activity assay, MCF7; format: cell-based; settings: Homo sapiens, cells exposed for 96 hours, read-out: Cytotoxicity activity IC50 (50% inhibition of cell proliferation)
Experimental: as §1

T1 sequence (P68400 whole entry): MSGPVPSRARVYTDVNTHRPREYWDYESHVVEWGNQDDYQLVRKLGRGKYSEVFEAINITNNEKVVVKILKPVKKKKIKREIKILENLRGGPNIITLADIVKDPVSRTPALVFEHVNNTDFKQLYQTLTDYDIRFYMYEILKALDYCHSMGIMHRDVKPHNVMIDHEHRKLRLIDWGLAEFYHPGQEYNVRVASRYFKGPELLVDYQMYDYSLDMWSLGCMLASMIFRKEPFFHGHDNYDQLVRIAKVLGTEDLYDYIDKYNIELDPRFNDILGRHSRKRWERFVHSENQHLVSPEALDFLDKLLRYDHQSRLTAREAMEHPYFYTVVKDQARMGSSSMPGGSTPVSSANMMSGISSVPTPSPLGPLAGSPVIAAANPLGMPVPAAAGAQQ
T1 sequence (P67870 whole entry partner): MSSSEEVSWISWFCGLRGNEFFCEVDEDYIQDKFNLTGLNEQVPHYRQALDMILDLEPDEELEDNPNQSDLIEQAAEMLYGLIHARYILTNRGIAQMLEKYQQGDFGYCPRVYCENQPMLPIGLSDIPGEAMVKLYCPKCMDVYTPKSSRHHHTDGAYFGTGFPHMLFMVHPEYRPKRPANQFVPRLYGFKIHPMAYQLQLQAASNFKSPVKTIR

IC50 [1]: 22 nM
SMILES: Clc1cccc(Nc2nc3c(nn4ccncc34)c3cnccc23)c1 [Compound (1), N-(3-chlorophenyl)pyrazino[1′,2′:1,5]pyrazolo[4,3-c][2,6]naphthyridin-5-amine]
IC50 (PC3 (prostate)): 1100 nM
IC50 (HCT116 (colon)): 1500 nM
IC50 (HL60 (leukemia)): 3.7 µM
IC50 (MDA-MB-231 (breast)): 4.1 µM
IC50 (A375 (melanoma)): 3.2 µM
IC50 (H1299 (lung)): 1900 nM
IC50 (MIAPaCa-2 (pancreas)): 1000 nM
IC50 (MCF7 (breast)): 4.9 µM
